Laboratory results taken from PubChem BioAssay (NCI).
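Following 48 hours of exposure in 96-well plates, responses at five concentrations were used to interpolate endpoints linearly. TGI: concentration producing complete growth inhibition.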

Assays:
Assay in all cases: NCI-60 cell line screen, 48 h
786-0 renal = system: 786-0 renal
A498 renal = system: A498 renal
A549 NSCLC = system: A549 NSCLC
ACHN renal = system: ACHN renal
CAKI-1 renal = system: CAKI-1 renal
CCRF-CEM leukemia = system: CCRF-CEM leukemia
COLO 205 colon = system: COLO 205 colon
DLD-1 colon = system: DLD-1 colon
DMS 114 small cell lung = system: DMS 114 small cell lung
DMS 273 small cell lung = system: DMS 273 small cell lung
EKVX NSCLC = system: EKVX NSCLC
HCC-2998 colon = system: HCC-2998 colon
HCT-116 colon = system: HCT-116 colon
HCT-15 colon = system: HCT-15 colon
HL-60(TB) leukemia = system: HL-60(TB) leukemia
HOP-18 NSCLC = system: HOP-18 NSCLC
HOP-62 NSCLC = system: HOP-62 NSCLC
HOP-92 NSCLC = system: HOP-92 NSCLC
HT29 colon = system: HT29 colon
IGROV1 ovarian = system: IGROV1 ovarian
K-562 leukemia = system: K-562 leukemia
KM12 colon = system: KM12 colon
KM20L2 colon = system: KM20L2 colon
LOX IMVI melanoma = system: LOX IMVI melanoma
LXFL 529 NSCLC = system: LXFL 529 NSCLC
M14 melanoma = system: M14 melanoma
M19-MEL melanoma = system: M19-MEL melanoma
MALME-3M melanoma = system: MALME-3M melanoma
MOLT-4 leukemia = system: MOLT-4 leukemia
NCI-H226 lung = system: NCI-H226 lung
NCI-H23 lung = system: NCI-H23 lung
NCI-H460 lung = system: NCI-H460 lung
NCI-H522 lung = system: NCI-H522 lung
OVCAR-3 ovarian = system: OVCAR-3 ovarian
OVCAR-4 ovarian = system: OVCAR-4 ovarian
OVCAR-5 ovarian = system: OVCAR-5 ovarian
OVCAR-8 ovarian = system: OVCAR-8 ovarian
RPMI-8226 leukemia = system: RPMI-8226 leukemia
RXF 393 renal = system: RXF 393 renal
SF-268 CNS = system: SF-268 CNS
SF-295 CNS = system: SF-295 CNS
SF-539 CNS = system: SF-539 CNS
SK-MEL-2 melanoma = system: SK-MEL-2 melanoma
SK-MEL-28 melanoma = system: SK-MEL-28 melanoma
SK-MEL-5 melanoma = system: SK-MEL-5 melanoma
SK-OV-3 ovarian = system: SK-OV-3 ovarian
SN12C renal = system: SN12C renal
SNB-19 CNS = system: SNB-19 CNS
SNB-75 CNS = system: SNB-75 CNS
SNB-78 CNS = system: SNB-78 CNS
SR leukemia = system: SR leukemia
SW-620 colon = system: SW-620 colon
TK-10 renal = system: TK-10 renal
U251 CNS = system: U251 CNS
UACC-257 melanoma = system: UACC-257 melanoma
UACC-62 melanoma = system: UACC-62 melanoma
UO-31 renal = system: UO-31 renal
XF 498 CNS = system: XF 498 CNS
RXF-631 renal = system: RXF-631 renal

Measured: TGI

COC(=N)/C(=C1\OC(N)=C(c2ccc(Cl)cc2)C1=O)c1ccc(Cl)cc1
not listed: RXF-631 renal
> 100 µM: all other assays above

COc1cc(C(N)=O)c(OC)c(OC)c1OC
not listed: CAKI-1 renal | HOP-18 NSCLC | MALME-3M melanoma | SR leukemia | UACC-257 melanoma | XF 498 CNS
> 100 µM: all other assays above
